A value given as a limit tells only on which side of the number the result lay.

For this assay, the target named is T1, recombinant human FAK1 (Homo sapiens, UniProt Q05397).
T1 construct: fused on or other part: N-terminal 6xHis tag
T1 sequence (Q05397 422-680 limits assumed): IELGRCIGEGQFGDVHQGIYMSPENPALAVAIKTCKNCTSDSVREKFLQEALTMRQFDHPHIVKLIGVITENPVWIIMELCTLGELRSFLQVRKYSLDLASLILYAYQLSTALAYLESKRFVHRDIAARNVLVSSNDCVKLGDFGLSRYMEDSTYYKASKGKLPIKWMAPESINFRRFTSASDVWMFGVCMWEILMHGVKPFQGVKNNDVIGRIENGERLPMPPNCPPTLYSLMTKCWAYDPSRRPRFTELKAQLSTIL
The assay can be described thus: FAK1 HTRF assay. Format: biochemical. The procedure: Active FAK1 was prepared for use in the Homogeneous Time-Resolved Fluorescence (HTRF) assay. Briefly, N-terminal 6 His tagged recombinant human FAK1, from residue 692-end (GenBank accession no. L13616) was expressed by Bacculovirus in sf9 cells. […] A 1.6 mg/mL (45 μM) stock was used in the HTRF assay at a final concentration of 10 nM.
Gastrin precursor (tyr87) biotinylated peptide which contains the residues surrounding tyrosine 87 (EEAY*GWM) of gastrin precursor was obtained (Cell Signaling Tech, Item no. 1310, Lot 7). The peptide was provided at a stock concentration of 6 μM, and used a final concentration of 0.5 μM in the HTRF assay.
10 mM stock in 100 μL Enzyme assay buffer pH7.4 was prepared freshly and used at a final concentration of 10 μM in the assay.
Powders were dissolved in 100% DMSO to a final stock concentration of 10 mM. The volume needed (in μL) to add for 10 mM=mg powder is 10^5/MW of compound. The final compound concentration in the assay plate started at 10 μM.
Pfizer FAK inhibitor PF-562271 (N-methyl-N-(3-(((2-((2-oxoindolin-5-yl)amino)-5-(trifluoromethyl)pyrimidin-4-yl)amino)methyl)pyridin-2-yl)methanesulfonamide) was prepared as per the reported procedure from US Patent Publication No. 2005/256145A1.
Streptavidin-Allophycocyanin was obtained (Prozyme, Cat. No. PJ25S. SA-APC was provided at a stock concentration of 2.06 mg/mL, where APC concentration was 11.6 μM and the streptavidin concentration was 15.5 μM. SA-APC was used at a final concentration of 12 nM in the assay (based on streptavidin concentration).
This reagent was obtained from Perkin ElmerAD0068. Europium-W1024-PT-66 Anti Phospho Tyrosine Ab is a monoclonal IgG1 that recognizes phospho tyrosine peptide. 100 μg/mL stock was used at a final concentration of 0.1 nM in the assay.
• 1. The compound dilutions were made by TECAN liquid handler as per the scheme in FIG. 1. • 2. 16 μL of diluted compound was added to each well of the assay plate using TECAN liquid handler. • 3. 20 μL of substrate mix (biotinylated gastrin precursor) was added into each well of the assay plate manually. • 4. 10 μL of enzyme mix (FAK1) was added to each well except mins. • 5. The plate was incubated at rt for 45 min with shaking. • 6. The HTRF mix was prepared and 75 μL was added to the HTRF plate. • 7. After the incubation was over, 10 μL of the mixture was transferred to the HTRF assay plate and incubated for 45 min at rt with shaking. • 8. The readings were taken in Pherastar in HTRF mode (ext 337 nm, em 665 & 620 nm) • 9. The results were analyzed using Graphpad Prism® software after calculation the z factor signal window and % inhibition. • 10. The IC50 was calculated.
(In general: In TR-FRET formats the signal depends on donor and acceptor labels being close together.)
Turning to `CN(c1ccc(F)cc1Cn1ccc2cnc(Nc3ccc(N4CCNCC4)cc3)nc21)S(C)(=O)=O` [Example 805], the IC50 is less than 0.02 µM.

As for `CC1(C)CN(S(=O)(=O)c2cccc3cccnc23)c2nc(Nc3ccc(N4CCNCC4)cc3)ncc21` [Example 403], the IC50 was less than 0.02 µM. With `CS(=O)(=O)c1ccc(Nc2cc3c(ccn3S(=O)(=O)c3ccccc3OC(F)(F)F)cn2)cc1` [Example 57], the IC50 was more than 1 µM.

Turning to `CN(C)C1CCN(c2ccc(Nc3ncc4ccn(Cc5cc(F)ccc5N(C)S(C)(=O)=O)c4n3)cc2)CC1` [Example 778], the IC50 was less than 0.02 µM.

With `CN(c1ccccc1Cn1ccc2cnc(Nc3ccc(N4CCNCC4)cc3)cc21)S(C)(=O)=O` [Example 325], the IC50 was less than 0.02 µM. With `CN(c1ncccc1Cn1ccc2cnc(Nc3ccc4c(c3)C(=O)NC4=O)nc21)S(C)(=O)=O` [Example 74], the IC50 was more than 1 µM. To `CC(=O)Nc1cccc(Oc2ncc3ccn(Cc4cccnc4N(C)S(C)(=O)=O)c3n2)c1` [Example 124] belongs more than 1 µM.

For the molecule `CC(=O)Nc1cccc(Nc2cc3c(ccn3-c3ccccn3)cn2)c1` [Example 37], the IC50 was more than 1 µM. To `CN(c1ccc(F)cc1Cn1ccc2cnc(Nc3ccc(N4CCNCC4)c(F)c3)nc21)S(C)(=O)=O` [Example 802] belongs less than 0.02 µM; to `COc1cc(Nc2cc3c(ccn3S(=O)(=O)c3ccccc3C#N)cn2)ccc1N1CCN(C)CC1` [Example 492], less than 0.02 µM; to `CN(C)C1CCC(c2ccc(Nc3ncc4ccn(Cc5cc(F)ccc5N(C)S(C)(=O)=O)c4n3)cc2)CC1` (stereo not drawn) [Example 806], less than 0.02 µM.

For the molecule `CC(=O)Nc1cccc(Nc2cc3c(ccn3S(=O)(=O)c3ccc(OC(F)(F)F)cc3)cn2)c1` [Example 46], the IC50 is more than 1 µM.

In the case of `O=C1CCc2cc(Nc3ncc4ccn(S(=O)(=O)c5ccc(OC(F)(F)F)cc5)c4n3)ccc2N1` [Example 41], the IC50 was more than 1 µM. To `CN(c1ccc(F)cc1Cn1ccc2cnc(Nc3ccc(N4CCCC(N)C4)cc3)nc21)S(C)(=O)=O` (stereo not drawn) [Example 800] belongs less than 0.02 µM; to `CN(c1ccc(F)cc1Cn1ccc2cnc(Nc3ccc4c(c3)CC(=O)N4)nc21)S(C)(=O)=O` [Example 792], less than 0.02 µM. To `COc1cc(Nc2ncc3ccn(S(=O)(=O)c4cccc5cccnc45)c3n2)ccc1NC(=O)C1CC1` [Example 376] belongs less than 0.02 µM. Take `O=C(C1CC1)N1CCN(c2ccc(Nc3cc4c(cn3)cnn4S(=O)(=O)c3cccc4cccnc34)cc2)CC1` [Example 352]: the IC50 was less than 0.02 µM. To `CN1CCCN(c2ccc(Nc3cc4c(ccn4S(=O)(=O)c4ccccc4C#N)cn3)cc2)CC1` [Example 505] belongs less than 0.02 µM.

For the molecule `O=S(=O)(c1ccc(Nc2ncc3ccn(Cc4cccnc4)c3n2)cc1)C(F)F` [Example 17], the IC50 is more than 1 µM. To `FC(F)(F)c1cccc(Nc2cc3c(ccn3Cc3cccnc3)cn2)c1` [Example 16] belongs more than 1 µM; to `Cc1cc(Nc2ncc3ccn(Cc4cc(F)ccc4N(C)S(C)(=O)=O)c3n2)ccc1C1CCNCC1` [Example 782], less than 0.02 µM.

For the molecule `CC(=O)Nc1ccccc1Nc1ncc2ccn(Cc3cccnc3N(C)S(C)(=O)=O)c2n1` [Example 71], the IC50 was more than 1 µM. To `O=S(=O)(c1ccc(Nc2cc3c(ccn3Cc3cccnc3)cn2)cc1)C(F)F` [Example 8] belongs more than 1 µM; to `O=S(=O)(c1cccc2cccnc12)n1ccc2cnc(Nc3ccc(N4CCCC(CO)C4)cc3)nc21` (stereo not drawn) [Example 425], less than 0.02 µM. To `O=S(=O)(c1ccccc1OC(F)(F)F)n1ncc2cnc(Nc3ccc4ncsc4c3)cc21` [Example 89] belongs more than 1 µM; to `C[C@@H]1CN(c2ccc(Nc3ncc4c(n3)N(S(=O)(=O)c3cccc5cccnc35)CC4(C)C)cc2)CCN1` [Example 470, (R)-5,5-dimethyl-N-(4-(3-methylpiperazin-1-yl)phenyl)-7-(quinolin-8-ylsulfonyl)-6,7-dihydro-5H-pyrrolo[2,3-d]pyrimidin-2-amine], less than 0.02 µM; to `Cc1ccc(N(C)S(C)(=O)=O)c(Cn2ccc3cnc(Nc4ccc(N5CCCC(N)C5)cc4)nc32)c1` (stereo not drawn) [Example 978], less than 0.02 µM.

Consider `COc1cc(Nc2ncc3ccn(Cc4cc(F)ccc4N(C)S(C)(=O)=O)c3n2)ccc1N1CCNCC1` [Example 801], for which the IC50 is less than 0.02 µM. To `Cc1ccc(N(C)S(C)(=O)=O)c(Cn2ccc3cnc(Nc4ccc(N5CCC(N)CC5)cc4)nc32)c1` [Example 977] belongs less than 0.02 µM; to `CN(c1ccc(OC(F)F)cc1Cn1ccc2cnc(Nc3ccc(N4CCNCC4)cc3)nc21)S(C)(=O)=O` [Example 717], less than 0.02 µM. To `C[C@H]1CN(C(=O)c2ccc(Nc3ncc4ccn(Cc5cccnc5N(C)S(C)(=O)=O)c4n3)cc2)CCN1` [Example 682] belongs more than 1 µM; to `CNc1ccc(Nc2ncc3ccn(Cc4cccnc4N(C)S(C)(=O)=O)c3n2)cc1` [Example 156], less than 0.02 µM; to `O=S(=O)(c1cccc2cccnc12)n1ncc2cnc(Nc3ccc(N4CCOCC4)cc3)nc21` [Example 409], less than 0.02 µM. Take `CN1CCC(Oc2ccc(Nc3ncc4ccn(Cc5ccccc5N(C)S(C)(=O)=O)c4n3)cc2)CC1` [Example 531]: the IC50 was less than 0.02 µM. To `CN(c1ccc(F)cc1Cn1ccc2cnc(Nc3ccc(N4CCN(CCO)CC4)cc3)nc21)S(C)(=O)=O` [Example 920] belongs less than 0.02 µM; to `CN(c1ccccc1Cn1ccc2cnc(Nc3ccc(N4CCC(C)(O)CC4)cc3)nc21)S(C)(=O)=O` [Example 638], less than 0.02 µM; to `CN(C)C1CN(c2ccc(Nc3ncc4ccn(Cc5ccccc5N(C)S(C)(=O)=O)c4n3)cc2)C1` [Example 588], less than 0.02 µM. To `COc1ccc(N(C)S(C)(=O)=O)c(Cn2ccc3cnc(Nc4ccc(N5CCNCC5)c(F)c4)nc32)c1` [Example 700] belongs less than 0.02 µM. Turning to `CN(c1ccccc1Cn1ccc2cnc(Nc3ccc(N4CCC(CO)CC4)cc3)nc21)S(C)(=O)=O` [Example 566], the IC50 is less than 0.02 µM.

Consider `CN(C)C1CCN(c2ccc(Nc3ncc4ccn(Cc5ccccc5N(C)S(C)(=O)=O)c4n3)cc2F)C1` (stereo not drawn) [Example 590], for which the IC50 was less than 0.02 µM. To `C[C@H]1CN(c2ccc(Nc3ncc4ccn(Cc5cc(Cl)ccc5N(C)S(C)(=O)=O)c4n3)cc2)CCN1` [Example 899] belongs less than 0.02 µM. To `CNC1CCN(c2ccc(Nc3ncc4ccn(Cc5cc(OC)ccc5N(C)S(C)(=O)=O)c4n3)cc2)CC1` [Example 709] belongs less than 0.02 µM; to `COc1ccc(N(C)S(C)(=O)=O)c(Cn2ccc3cnc(Nc4ccc(N5CCNCC5)cc4)nc32)c1` [Example 661], less than 0.02 µM. As for `COc1ccc(N(C)S(C)(=O)=O)c(Cn2ccc3cnc(Nc4ccc(N5CCC(N(C)C)CC5)c(C)c4)nc32)c1` [Example 705], the IC50 was less than 0.02 µM. Regarding `CN(c1ccccc1Cn1ccc2cnc(Nc3ccc(N4CCN5C(=O)CCC5C4)cc3)nc21)S(C)(=O)=O` (stereo not drawn) [Example 436], the IC50 was less than 0.02 µM. Take `CC(=O)Nc1ccc(Nc2cc3c(ccn3S(=O)(=O)c3ccc(OC(F)(F)F)cc3)cn2)cc1` [Example 47]: the IC50 is more than 1 µM.

In the case of `CSc1cccc(Nc2cc3c(ccn3Cc3cccnc3)cn2)c1` [Example 13], the IC50 was more than 1 µM. Take `O=C1CCc2cc(Nc3ncc4cnn(Cc5cccnc5)c4n3)ccc2N1` [Example 14]: the IC50 is more than 1 µM.

As to `C[C@H]1CN(c2ccc(Nc3ncc4ccn(Cc5cc(C(F)(F)F)ccc5N(C)S(C)(=O)=O)c4n3)cc2)CCN1` [Example 810], the IC50 was less than 0.02 µM.

Turning to `Cc1ccc(N(C)S(C)(=O)=O)c(Cn2ccc3cnc(Nc4ccc(C5CCNCC5)c(C)c4)nc32)c1` [Example 807], the IC50 is less than 0.02 µM. To `CN(c1ccccc1Cn1ccc2cnc(Nc3ccc(OCCN4CCNCC4)cc3)nc21)S(C)(=O)=O` [Example 572] belongs less than 0.02 µM. In the case of `CC(=O)Nc1ccc(Nc2cc3c(cn2)c(C)nn3Cc2cccnc2N(C)S(C)(=O)=O)cc1` [Example 72], the IC50 was more than 1 µM.

Take `CN(c1ccccc1Cn1ccc2cnc(Nc3ccc(N4CCNCC4)c(F)c3)nc21)S(C)(=O)=O` [Example 438]: the IC50 is less than 0.02 µM. To `CN(c1ncccc1CN1C(=O)C(C)(C)c2cnc(Nc3ccc(N4CCNCC4)cc3)nc21)S(C)(=O)=O` [Example 380] belongs more than 1 µM.

For orientation: IC50 means the concentration at which inhibition is half-maximal.

The values are drawn from patent US20160222014A1, “COMPOUNDS FOR REGULATING FAK AND/OR SRC PATHWAYS” (ASANA BIOSCIENCES, LLC, priority 2013, published 2016).
